Reference: patent US20180238886A1, “METHODS FOR TREATING HEMATOLOGICAL CANCER AND THE USE OF BIOMARKERS AS A PREDICTOR FOR RESPONSIVENESS TO TREATMENT COMPOUNDS” (CELGENE CORPORATION, priority 2017, published 2018)

System: DLBCL patients
Assay: Clinical evaluation of gene classifiers in the Compound A cohort (progression free survival, objective response)
Type: in vivo, human
Parameters: Median Surv BM+ / Median Surv BM−: unit not given here
Conditions: for Predictive Effects Cox HR: BM+ vs BM-; for Predictive Effects Cox HR / Median Surv BM− / Median Surv BM+: progression free survival, Cmp A-ST (N = 57); for Median Surv BM−: biomarker-negative patients; for Median Surv BM+: biomarker-positive patients; for CR BM+ / CR BM−: number of complete responses; for OR BM+ / OR BM−: number of objective responses
Description: A proof of principle study was designed to translate the biomarker content and model to a clinically viable platform. The study consisted of four major steps: 1) development of a simplified linear model of the primary signal, 2) placing the model in the scale of a clinically viable technology (such as but not limited to, Nanostring nCounter or qRT-PCR), 3) establishing a threshold to replicate the output of the research assay, and 4) evaluating the simplified model and threshold in the Compound A cohort. The final model was applied to the Lenz microarray cohort and the Compound A Non-transformed cohort assayed by Nanostring nCounter. The classification of each sample was then combined with clinical data, and associations with clinical variables such as objective response and progression free survival were calculated. Results are shown as Kaplan-Meier plots in FIGS. 4A-4D. […] FIGS. 4A and 4C show the original 26 gene research classifier, and FIGS. 4B and 4D show the linear model that resulted from this bridging study. […] Importantly, the shapes of the curves for each group are very similar between the original 26 gene classifier and the bridged linear model. Additional results including biomarker prevalence, summary statistics from Cox Proportional Hazards models, objective response, and model details are listed in Table 6.

[1] = CG26 classifier, BM+ (25 patients)
[2] = CG26 classifier, BM− (32 patients)
[3] = M1 classifier, BM+ (22 patients)
[4] = M1 classifier, BM− (35 patients)

Cc1nc2cccc(N)c2c(=O)n1C1CCC(=O)NC1=O (centres unmarked) [Compound A, 3-(5-amino-2-methyl-4-oxo-4H-quinazolin-3-yl)-piperidine-2,6-dione]
Predictive Effects Cox HR (CG26 classifier): 0.31 | Median Surv BM− (CG26 classifier): 6.7 | Median Surv BM+ (CG26 classifier): 35.9 | Predictive Effects Cox HR (M1 classifier): 0.32 | Median Surv BM− (M1 classifier): 6.9 | Median Surv BM+ (M1 classifier): 37.9 | CR BM+ [1]: 4 | CR BM− [2]: 2 | CR BM+ [3]: 4 | CR BM− [4]: 2 | OR BM+ [1]: 12 | OR BM− [2]: 5 | OR BM+ [3]: 10 | OR BM− [4]: 7
